# Measurements taken from patent US12233044B2, “Cannabidiol and chitosan compositions and methods of using the same” (priority 2017, dated 2025).
# Several values for one entry are separate records, joined by “and”; a condition that tells them apart may be missing. Equal entries are not always repeated.
# Tests used:
# [1] = Guinea pig induced dyslipidemia model, body weight gain; assay type: in vivo
# Procedure: The objective of this research was to examine the cholesterol blood levels of guinea pigs, fed ad libitum a high-level fat diet rich in lauric and myristic acids alone or in combination with various formulations.
# “Day 0” was initiation of the Study period, animals received regular guinea pig diet. Day 3 the animals were subjected to blood withdrawal and subsequently the first day of supplying the fattening diet. On day 11 chitosan diet was administered to the relevant group. On day 24 CBD diet and CBD chitosan diet were administered until day 27.
# Determination of individual body weights of animals was conducted once weekly during the entire study.
# [2] = test system: Triglyceride levels in the serum; assay: Guinea pig induced dyslipidemia model, serum triglycerides; assay type: in vivo
# Procedure: The blood cholesterol and triglycerides were examined in male guinea pigs, following an oral administration of the various formulations in correlation to the Controlled group.
# Measurement of cholesterol, and Triglyceride levels in the serum were performed following a 7-10 day of exposure to the different diets.
# Day 3 all animals; Day 11 all animals; Day 24 all animals; Day 27 CBD, CNTL-fattening and CBD-chitosan group.
# The blood collection tubes (BD 367955) were specialized for serum separation, containing a clot activator and a gel which separates the cell content (pellet) from the serum (supernatant) after centrifugation. Blood samples of ˜0.5 mL/animal were collected into the pre-marked tubes (study code, animal number and date). At all times blood was collected under anesthesia: Ketamine 20-40 mg/kg & Diazepam 1-2 mg/kg IM. Blood collection of all animals was performed via the periorbital eye venous plexus puncture.
# Blood samples were left at room temperature for at least 45 minutes, and subsequently centrifuged ([…], 1790 g, 10 min/RT) for serum separation and left in the specialized tubes with the gel partitioning the separated serum and cell content. The samples were transferred as such to AML.
# Following serum separation, the samples were kept at 2-8° C. until transferred to AML, for blood lipid profile analysis (cholesterol, LDL, HDL and Triglyceride levels). Sample transfer was via wet ice packed in Styrofoam boxes and transferred within 1-2 hours from blood separation.
smiles,measurement,setting,value
"C=C(C)[C@@H]1CCC(C)=C[C@H]1c1c(O)cc(CCCCC)cc1O [CBD, Cannabidiol]","Change in Weight by group, Mean","[1]; change in weight during treatment, group mean, N 15",58.8
same,"Mean difference, Change in Weight by group",[1]; contrast CBD - CHIT,34.5
same,"Mean difference, Change in Weight by group",[1]; contrast CNTL - CBD,6.0
same,"Mean difference, DELTA WEIGHT second phase",[1]; contrast CNTL - CBD,2.8
same,"DELTA WEIGHT, Second phase Group","[1]; individual animals, second phase treatment",108.00 and 133.00 and 157.00 and 130.00
same,"DELTA WEIGHT by Second phase Group, Mean","[1]; study initiation to after second phase treatment, group mean",132.0
same,"Mean difference, TG delta 27 D to 10 D",[2]; contrast CNTL - CBD CNTL,28.3
same,"TG delta 27 D to 10 D by group second phase, Mean",[2]; group mean,−33.0
same,Triglycerides lowering effect (in words),"[2]; guinea pig, in vivo",lower TG values
same,Difference in triglycerides versus CNTL group,[2]; significance,not significant
